#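 Each compound was tested at five concentrations against cells in 96-well plates for 48 hours. The concentration for 50% growth inhibition is given as GI50.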 Activity calls are given as the source filed them. Cut-off read from the data, not from the text of the source: active = GI50 up to about 1.1 µM and inactive = higher.
# Tests used:
# Test in all cases: NCI tumour cell line growth inhibition, 48 h
# [1] = tested on: SNB-75
# [2] = tested on: A498
# [3] = tested on: UACC-62
# [4] = tested on: SK-OV-3
# [5] = tested on: MDA-MB-435
# [6] = tested on: T47D
# [7] = tested on: SK-MEL-5
# [8] = tested on: HOP-62
# [9] = tested on: SF-539
# [10] = tested on: ACHN
# [11] = tested on: SK-MEL-28
# [12] = tested on: SF-268
# [13] = tested on: UACC-257
# [14] = tested on: SW-620
# [15] = tested on: CCRF-CEM
# [16] = tested on: KM12
# [17] = tested on: RPMI-8226
# [18] = tested on: MOLT-4
# [19] = tested on: UO-31
# [20] = tested on: 786-0
# [21] = tested on: SK-MEL-2
# [22] = tested on: CAKI-1
# [23] = tested on: NCI-H23
# [24] = tested on: SF-295
# [25] = tested on: PC-3
# [26] = tested on: U-251
# [27] = tested on: HOP-92
# [28] = tested on: NCI/ADR-RES
# [29] = tested on: SN12C
# [30] = tested on: K562
# [31] = tested on: OVCAR-3
# [32] = tested on: DU-145
# [33] = tested on: MCF7
# [34] = tested on: NCI-H460
# [35] = tested on: OVCAR-5
# [36] = tested on: NCI-H226
# [37] = tested on: MDA-MB-231
# [38] = tested on: COLO 205
# [39] = tested on: TK-10
# [40] = tested on: OVCAR-8
# [41] = tested on: HL-60
# [42] = tested on: HCT-15
# [43] = tested on: HCT-116
# [44] = tested on: SR
# [45] = tested on: HT-29
# [46] = tested on: A549
# [47] = tested on: OVCAR-4
# [48] = tested on: M14
# [49] = tested on: SNB-19
# [50] = tested on: HCC 2998
# [51] = tested on: LOX IMVI
# [52] = tested on: IGROV-1
# [53] = tested on: EKVX
# [54] = tested on: RXF 393
# [55] = tested on: Malme-3M
# [56] = tested on: NCI-H522
# [57] = tested on: Hs-578T
# [58] = tested on: BT-549
# [59] = tested on: MDA-N
smiles,measurement,setting,value
CC(C)[Si](OC12CCC(CC1O)CC2CO)(C(C)C)C(C)C (configuration not stated),GI50,[1],13.9 µM (inactive)
same,GI50,[2],16.7 µM (inactive)
same,GI50,[3],14.9 µM (inactive)
same,GI50,[4],14.4 µM (inactive)
same,GI50,[5],16.1 µM (inactive)
same,GI50,[6],9.77 µM (inactive)
same,GI50,[7],18.3 µM (inactive)
same,GI50,[8],16.4 µM (inactive)
same,GI50,[9],23.4 µM (inactive)
same,GI50,[10],14.2 µM (inactive)
same,GI50,[11],20.4 µM (inactive)
same,GI50,[12],14.6 µM (inactive)
same,GI50,[13],13.7 µM (inactive)
same,GI50,[14],21.1 µM (inactive)
same,GI50,[15],13.4 µM (inactive)
same,GI50,[16],12.7 µM (inactive)
same,GI50,[17],10.2 µM (inactive)
same,GI50,[18],11.5 µM (inactive)
same,GI50,[19],13.9 µM (inactive)
same,GI50,[20],10.5 µM (inactive)
same,GI50,[21],15.8 µM (inactive)
same,GI50,[22],18.7 µM (inactive)
same,GI50,[23],12.8 µM (inactive)
same,GI50,[24],12.2 µM (inactive)
same,GI50,[25],11.8 µM (inactive)
same,GI50,[26],12.6 µM (inactive)
same,GI50,[27],12.1 µM (inactive)
same,GI50,[28],15 µM (inactive)
same,GI50,[29],22 µM (inactive)
same,GI50,[30],14.7 µM (inactive)
same,GI50,[31],14.5 µM (inactive)
same,GI50,[32],16.9 µM (inactive)
same,GI50,[33],12 µM (inactive)
same,GI50,[34],12.6 µM (inactive)
same,GI50,[35],17.4 µM (inactive)
same,GI50,[36],17.3 µM (inactive)
same,GI50,[37],19.7 µM (inactive)
same,GI50,[38],18 µM (inactive)
same,GI50,[39],14.4 µM (inactive)
same,GI50,[40],16.2 µM (inactive)
same,GI50,[41],1.34 µM (inactive)
same,GI50,[42],14.1 µM
same,GI50,[43],8 µM (inactive)
same,GI50,[44],7.55 µM (inactive)
same,GI50,[45],15.5 µM (inactive)
same,GI50,[46],10.4 µM (inactive)
same,GI50,[47],11.5 µM (inactive)
same,GI50,[48],15.1 µM (inactive)
same,GI50,[49],15.3 µM (inactive)
C=CCN1CN(c2ccccc2)C2(CCN(CCCC3(c4ccc(F)cc4)OCCO3)CC2)C1=O,GI50,[1],15.3 µM (inactive)
same,GI50,[3],18.7 µM (inactive)
same,GI50,[4],19.6 µM (inactive)
same,GI50,[6],11.6 µM (inactive)
same,GI50,[7],15.1 µM (inactive)
same,GI50,[8],21.1 µM (inactive)
same,GI50,[9],10.9 µM (inactive)
same,GI50,[50],19.7 µM (inactive)
same,GI50,[10],18.7 µM (inactive)
same,GI50,[11],16.9 µM (inactive)
same,GI50,[12],18.7 µM (inactive)
same,GI50,[13],18.3 µM (inactive)
same,GI50,[14],18.7 µM (inactive)
same,GI50,[15],13.3 µM (inactive)
same,GI50,[16],15.8 µM (inactive)
same,GI50,[17],12.4 µM (inactive)
same,GI50,[51],18.5 µM (inactive)
same,GI50,[18],11 µM (inactive)
same,GI50,[19],9.93 µM (inactive)
same,GI50,[20],17.7 µM (inactive)
same,GI50,[22],26.7 µM (inactive)
same,GI50,[52],19.9 µM (inactive)
same,GI50,[23],13.5 µM (inactive)
same,GI50,[24],18.5 µM (inactive)
same,GI50,[25],16.2 µM (inactive)
same,GI50,[26],15.3 µM (inactive)
same,GI50,[28],14.4 µM (inactive)
same,GI50,[29],17.7 µM (inactive)
same,GI50,[30],12.8 µM (inactive)
same,GI50,[31],14.4 µM (inactive)
same,GI50,[32],22.4 µM (inactive)
same,GI50,[53],15.1 µM (inactive)
same,GI50,[33],14.7 µM (inactive)
same,GI50,[35],11.3 µM (inactive)
same,GI50,[36],19.5 µM (inactive)
same,GI50,[37],18.3 µM (inactive)
same,GI50,[54],14.8 µM (inactive)
same,GI50,[38],15.3 µM (inactive)
same,GI50,[39],16.9 µM (inactive)
same,GI50,[40],16.1 µM (inactive)
same,GI50,[41],13.7 µM (inactive)
same,GI50,[42],12.5 µM
same,GI50,[43],14.8 µM (inactive)
same,GI50,[55],16.5 µM (inactive)
same,GI50,[44],12.1 µM (inactive)
same,GI50,[45],5.61 µM (inactive)
same,GI50,[46],21.2 µM (inactive)
same,GI50,[56],18.9 µM (inactive)
same,GI50,[48],15.5 µM (inactive)
same,GI50,[49],19.5 µM (inactive)
Oc1c(C(O)c2ccccn2)ccc2ccccc12 (configuration not stated),GI50,[57],35.1 µM (inactive)
same,GI50,[1],24.4 µM (inactive)
same,GI50,[3],14.4 µM (inactive)
same,GI50,[6],> 100 µM (inactive)
same,GI50,[7],22.7 µM (inactive)
same,GI50,[8],81.3 µM (inactive)
same,GI50,[9],87.3 µM (inactive)
same,GI50,[50],17.1 µM (inactive)
same,GI50,[10],66.4 µM (inactive)
same,GI50,[12],72.4 µM (inactive)
same,GI50,[13],> 100 µM (inactive)
same,GI50,[15],17.9 µM (inactive)
same,GI50,[16],54.1 µM (inactive)
same,GI50,[51],> 100 µM (inactive)
same,GI50,[18],19.6 µM (inactive)
same,GI50,[19],29.6 µM (inactive)
same,GI50,[23],69.8 µM (inactive)
same,GI50,[24],> 100 µM (inactive)
same,GI50,[25],26.9 µM (inactive)
same,GI50,[26],52 µM (inactive)
same,GI50,[28],42.1 µM (inactive)
same,GI50,[29],48.1 µM (inactive)
same,GI50,[30],26.4 µM (inactive)
same,GI50,[31],56.8 µM (inactive)
same,GI50,[32],> 100 µM (inactive)
same,GI50,[53],53.1 µM (inactive)
same,GI50,[36],85.3 µM (inactive)
same,GI50,[54],32.9 µM (inactive)
same,GI50,[40],74.6 µM (inactive)
same,GI50,[41],15.1 µM (inactive)
same,GI50,[42],22.1 µM
same,GI50,[43],32.2 µM (inactive)
same,GI50,[46],61.7 µM (inactive)
same,GI50,[56],17.4 µM (inactive)
same,GI50,[48],> 100 µM (inactive)
same,GI50,[49],> 100 µM (inactive)
O=C(/C=C\c1ccc(-c2ccccc2)cc1)c1cccs1,GI50,[57],9.59 µM (inactive)
same,GI50,[1],28.6 µM (inactive)
same,GI50,[2],8.67 µM (inactive)
same,GI50,[3],16.4 µM (inactive)
same,GI50,[4],64.9 µM (inactive)
same,GI50,[5],17.5 µM (inactive)
same,GI50,[7],> 70 µM (inactive)
same,GI50,[8],25.3 µM (inactive)
same,GI50,[9],7.18 µM (inactive)
same,GI50,[50],> 28.4 µM (inactive)
same,GI50,[10],32.3 µM (inactive)
same,GI50,[11],> 100 µM (inactive)
same,GI50,[12],22.5 µM (inactive)
same,GI50,[13],> 100 µM (inactive)
same,GI50,[14],5.41 µM (inactive)
same,GI50,[15],2.42 µM (inactive)
same,GI50,[16],4.42 µM (inactive)
same,GI50,[17],3.23 µM (inactive)
same,GI50,[51],3.88 µM (inactive)
same,GI50,[18],3.1 µM (inactive)
same,GI50,[19],16.6 µM (inactive)
same,GI50,[20],11.6 µM (inactive)
same,GI50,[21],39.4 µM (inactive)
same,GI50,[22],35.7 µM (inactive)
same,GI50,[52],29.4 µM (inactive)
same,GI50,[23],22 µM (inactive)
same,GI50,[58],15.6 µM (inactive)
same,GI50,[59],7.89 µM (inactive)
same,GI50,[24],29.7 µM (inactive)
same,GI50,[25],> 100 µM (inactive)
same,GI50,[26],5.09 µM (inactive)
same,GI50,[27],> 69.2 µM (inactive)
same,GI50,[28],26.7 µM (inactive)
same,GI50,[29],7.45 µM (inactive)
same,GI50,[30],3.7 µM (inactive)
same,GI50,[31],9.29 µM (inactive)
same,GI50,[32],5.56 µM (inactive)
same,GI50,[53],53 µM (inactive)
same,GI50,[33],3.56 µM (inactive)
same,GI50,[34],56.4 µM (inactive)
same,GI50,[35],45.2 µM (inactive)
same,GI50,[36],> 69.8 µM (inactive)
same,GI50,[37],48.5 µM (inactive)
same,GI50,[54],10.9 µM (inactive)
same,GI50,[38],> 39.2 µM (inactive)
same,GI50,[39],46.2 µM (inactive)
same,GI50,[40],6.44 µM (inactive)
same,GI50,[41],3.89 µM (inactive)
same,GI50,[42],7.74 µM
same,GI50,[43],27.4 µM (inactive)
same,GI50,[44],2.7 µM (inactive)
same,GI50,[45],3.38 µM (inactive)
same,GI50,[46],> 79.6 µM (inactive)
same,GI50,[56],3.87 µM (inactive)
same,GI50,[47],> 54.2 µM (inactive)
same,GI50,[48],> 100 µM (inactive)
same,GI50,[49],> 59.2 µM (inactive)
